Source: patent US8586591B2, “Aminopyrazine derivative and medicine” (Nippon Shinyaku Co., Ltd., priority 2009, dated 2013)
Counter-ions that a name gives are not always drawn.

Experiments:
[1] = molecular target: BaF3 cells into which JAK2 V617F gene was introduced (Homo sapiens, UniProt O60674, V617F, cells depend on it); experiment: Test 2: growth inhibitory action against variant JAK2 expressed cells (MTT method); assay type: cell-based; details: incubation for 3 days, triplicate, read-out: concentration of the test material which inhibited 50% of the cell growth (IC50)
Method: Test 2: Growth inhibitory action against variant JAK2 expressed cells
BaF3 cells into which JAK2 V617F gene was introduced ([…]) were inoculated on a 96-well plate in an amount of 1×10^3 cells/well and allowed to stand in a CO2 incubator. Next day, the test material was added to the cells. The test material was serially diluted with DMSO to give 10 mM, 6 mM, 3 mM, 1 mM, 600 μM, 300 μM, 100 μM, 60 μM, 30 μM, or 10 μM solution. This was diluted 100 times with distilled water to give 100 μM, 60 μM, 30 μM, 10 μM, 6 μM, 3 μM, 1 μM, 600 nM, 300 nM, or 100 nM solution. This solution of test material was added to the well in an amount of 10 μl/well. As a negative control, 1% DMSO solution was added to the well in an amount of 10 μl/well. In the above operation, the final concentration of the test material became 10 μM, 6 μM, 3 μM, 1 μM, 600 nM, 300 nM, 100 nM, 60 nM, 30 nM, 10 nM, or 0 nM (0.1% DMSO solution). The addition of the test material solution to each well was made in triplicate.
After continuous incubation for 3 days, the viable count was determined by an MTT method. The MTT method was carried out as follows. First, 10 μl each of solution containing 5 mg/ml of MTT (3-(4,5-dimethylthiazol-2-yl)-2,5-diphenyltetrazolium bromide) was added to each well. The plate was allowed to stand in a CO2 incubator for 4 hours, and then 100 μl of 0.04N HCl/2-propanol solution was added to each well to stop the reaction. The generated MTT-formazan was dissolved well with a multi-channel pipette, and the absorbance at 595 nm was measured with reference to that at 655 nm (Thermo Co.; Multiskan FC). Non-linear regression analysis was made by means of a SAS system (SAS Institute Inc.), and the concentration (IC50) of the test material which inhibited 50% of the cell growth was estimated.

JAK3 tyrosine kinase = molecular target: T1, JAK3 tyrosine kinase (Homo sapiens, UniProt P52333); experiment: Test 1: inhibitory activity to JAK3 tyrosine kinase (ELISA); assay type: biochemical; details: 25 μM ATP in substrate solution, 30° C. for 1 hour, n=2
T1 construct: purchased Carnabioscience Co
T1 sequence (P52333 1-1124): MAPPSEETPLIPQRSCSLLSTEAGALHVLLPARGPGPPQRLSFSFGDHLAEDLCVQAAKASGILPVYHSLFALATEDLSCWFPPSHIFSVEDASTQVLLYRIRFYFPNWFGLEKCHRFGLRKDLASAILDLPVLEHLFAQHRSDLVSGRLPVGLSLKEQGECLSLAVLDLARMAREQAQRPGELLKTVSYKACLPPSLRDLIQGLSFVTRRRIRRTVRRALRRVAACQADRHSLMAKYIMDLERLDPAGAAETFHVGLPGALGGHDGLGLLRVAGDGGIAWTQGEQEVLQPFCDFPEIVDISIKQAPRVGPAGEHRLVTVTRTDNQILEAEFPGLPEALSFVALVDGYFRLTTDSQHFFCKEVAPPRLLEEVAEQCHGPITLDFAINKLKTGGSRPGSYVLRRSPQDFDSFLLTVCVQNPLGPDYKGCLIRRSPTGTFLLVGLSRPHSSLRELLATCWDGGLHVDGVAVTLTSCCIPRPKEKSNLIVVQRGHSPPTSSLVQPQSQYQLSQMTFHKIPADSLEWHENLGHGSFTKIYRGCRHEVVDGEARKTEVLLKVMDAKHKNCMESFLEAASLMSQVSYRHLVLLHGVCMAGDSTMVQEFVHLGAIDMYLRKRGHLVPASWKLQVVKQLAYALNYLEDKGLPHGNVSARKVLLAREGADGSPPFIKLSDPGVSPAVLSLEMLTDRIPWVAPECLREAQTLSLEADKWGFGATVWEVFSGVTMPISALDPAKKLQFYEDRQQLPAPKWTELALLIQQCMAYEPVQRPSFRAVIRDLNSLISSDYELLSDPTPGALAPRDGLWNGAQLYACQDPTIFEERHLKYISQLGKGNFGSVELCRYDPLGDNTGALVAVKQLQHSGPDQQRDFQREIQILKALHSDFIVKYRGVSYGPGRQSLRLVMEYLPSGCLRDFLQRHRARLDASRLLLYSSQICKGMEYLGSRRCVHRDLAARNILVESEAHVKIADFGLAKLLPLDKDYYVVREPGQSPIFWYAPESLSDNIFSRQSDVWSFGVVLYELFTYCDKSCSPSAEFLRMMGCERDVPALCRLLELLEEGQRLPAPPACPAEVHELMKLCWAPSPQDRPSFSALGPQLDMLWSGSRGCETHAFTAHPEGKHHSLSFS
How it was run: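 ELISA of JAK3 kinase activity with absorbance read at 450 nm. Compounds were tested from DMSO dilution series at 100-fold the measurement concentrations (1000–0.01 μM), diluted up to 20 times in assay buffer, against a DMSO negative control. IC50 was estimated by non-linear regression of absorbance.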

JAK2 tyrosine kinase = molecular target: T2, JAK2 tyrosine kinase (Homo sapiens, UniProt O60674); experiment: Test 1: inhibitory activity to JAK2 tyrosine kinase (ELISA); assay type: biochemical; details: 25 μM ATP in substrate solution, 30° C. for 1 hour, n=2
T2 construct: purchased Carnabioscience Co
How it was run: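 Human JAK2 (diluted to 0.75 nM before addition) phosphorylated a biotinylated peptide on streptavidin plates for 1 h at 30 °C. The substrate mix held 625 nM peptide, 25 μM ATP and 25 mM MgCl2 in 15 mM Tris pH 7.5, 0.01% Tween-20 and 1 mM DTT. Phosphotyrosine was detected by HRP antibody/TMB at 450 nm, and IC50 was obtained by non-linear regression; duplicates were run.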

T2 sequence (O60674 whole entry): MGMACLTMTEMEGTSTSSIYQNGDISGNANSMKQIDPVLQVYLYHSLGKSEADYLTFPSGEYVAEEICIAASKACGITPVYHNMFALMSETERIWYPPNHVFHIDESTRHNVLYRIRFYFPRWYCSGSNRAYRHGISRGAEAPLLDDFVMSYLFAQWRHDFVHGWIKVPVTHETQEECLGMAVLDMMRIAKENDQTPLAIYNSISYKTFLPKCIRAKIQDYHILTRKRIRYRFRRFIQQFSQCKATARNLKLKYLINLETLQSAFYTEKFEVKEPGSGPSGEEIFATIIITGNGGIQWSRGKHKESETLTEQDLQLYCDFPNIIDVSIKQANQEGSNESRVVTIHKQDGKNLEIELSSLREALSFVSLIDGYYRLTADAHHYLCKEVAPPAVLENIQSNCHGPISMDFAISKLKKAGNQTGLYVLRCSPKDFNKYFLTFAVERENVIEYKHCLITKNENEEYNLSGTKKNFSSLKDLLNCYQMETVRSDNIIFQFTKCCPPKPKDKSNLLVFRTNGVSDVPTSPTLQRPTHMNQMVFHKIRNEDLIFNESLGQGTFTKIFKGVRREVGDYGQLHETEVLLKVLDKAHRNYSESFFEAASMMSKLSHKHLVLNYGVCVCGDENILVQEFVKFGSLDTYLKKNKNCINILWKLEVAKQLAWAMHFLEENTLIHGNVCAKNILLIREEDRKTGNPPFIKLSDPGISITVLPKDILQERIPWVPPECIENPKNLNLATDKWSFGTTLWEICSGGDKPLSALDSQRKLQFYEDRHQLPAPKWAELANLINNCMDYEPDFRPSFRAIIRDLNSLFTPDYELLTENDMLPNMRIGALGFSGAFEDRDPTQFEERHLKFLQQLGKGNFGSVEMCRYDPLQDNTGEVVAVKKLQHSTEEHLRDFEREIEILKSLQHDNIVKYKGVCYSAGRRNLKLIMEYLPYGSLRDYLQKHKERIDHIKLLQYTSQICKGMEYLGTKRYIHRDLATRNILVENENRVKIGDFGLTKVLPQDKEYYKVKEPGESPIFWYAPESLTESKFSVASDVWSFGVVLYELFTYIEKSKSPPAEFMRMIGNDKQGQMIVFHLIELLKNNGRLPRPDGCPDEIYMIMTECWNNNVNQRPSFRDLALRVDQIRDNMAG
Sequence of BaF3 cells into which JAK2 V617F gene was introduced (O60674 whole entry V617F): as the sequence (O60674 whole entry) above, with V617F counted along it

| GI50 [1] | IC50 (JAK3 tyrosine kinase) | IC50 (JAK2 tyrosine kinase) | Compound |
| --- | --- | --- | --- |
| 64 nM | 380 nM | 2.2 nM | CCCNC(=O)c1cc(Nc2cnccn2)nc(N[C@@H](C)c2ccc(F)cc2)c1 [Example 166, (S)-2-[1-(4-Fluorophenyl)ethylamino]-N-propyl-6-(pyrazin-2-ylamino)isonicotinamide] |
| 63 nM | 350 nM | 1.6 nM | C[C@H](Nc1cc(C(=O)NCC2CC2)cc(Nc2cnccn2)n1)c1ccc(F)cc1 [Example 167, (S)—N-Cyclopropylmethyl-2-[1-(4-fluorophenyl)ethylamino]-6-(pyrazin-2-ylamino) isonicotinamide] |
| 77 nM | 180 nM | 1.2 nM | CC(C)CNC(=O)c1cc(Nc2cnccn2)nc(N[C@@H](C)c2ccc(F)cc2)c1 [Example 170, (S)-2-[1-(4-Fluorophenyl)ethylamino]-N-isobutyl-6-(pyrazin-2-ylamino) isonicotinamide] |
| 70 nM | 26 nM | 0.39 nM | C[C@H](Nc1nc(Nc2cnccn2)cc(N2CC(O)(C3CC3)C2)n1)c1ccc(F)cc1 [Example 200, (S)-3-Cyclopropyl-1-{2-[1-(4-fluorophenyl)ethylamino]-6-(pyrazin-2-ylamino)pyrimidin-4-yl}azetidin-3-ol hydrochloride] |
| 64 nM | 24 nM | 0.98 nM | C[C@H](Nc1nc(Nc2cnccn2)cc(N2CC(N(C)C)C2)n1)c1ccc(F)cc1 [Example 220, (S)-6-[3-(Dimethylamino)azetidin-1-yl]-N^2-[1-(4-fluorophenyl)ethyl]-N^4-(pyrazin-2-yl)pyrimidine-2,4-diamine] |

More lines, now with the values behind:

| Compound | GI50 [1] | IC50 (JAK3 tyrosine kinase) | IC50 (JAK2 tyrosine kinase) |
| --- | --- | --- | --- |
| C[C@H](Nc1nc(Nc2cnccn2)cc(N2CCN(S(C)(=O)=O)CC2)n1)c1ccc(F)cc1 [Example 65, (S)—N^2-[1-(4-Fluorophenyl)ethyl]-6-[4-(methylsulfonyl)piperazin-1-yl]-N^4-(pyrazin-2-yl)pyrimidine-2,4-diamine hydrochloride] | 93 nM | 8.9 nM | 0.27 nM |
| C[C@H](Nc1nc(Nc2cnccn2)cc(N2CCC(O)(CO)CC2)n1)c1ccc(F)cc1 [Example 105, (S)-1-{2-[1-(4-Fluorophenyl)ethylamino]-6-(pyrazin-2-ylamino)pyrimidin-4-yl}-4-(hydroxymethyl)piperidin-4-ol] | 60 nM | 27 nM | 0.55 nM |
| C[C@H](Nc1nc(Nc2cnccn2)cc(N2CCC3(CC2)COC(=O)O3)n1)c1ccc(F)cc1 [Example 112, (S)-8-{2-[1-(4-Fluorophenyl)ethylamino]-6-(pyrazin-2-ylamino)pyrimidin-4-yl}-1,3-dioxo-8-azaspiro[4.5]decan-2-one] | 64 nM | 67 nM | 0.69 nM |
| C[C@H](Nc1nc(Nc2cnccn2)cc(N2CC(N3CCCC3)C2)n1)c1ccc(F)cc1 [Example 222, (S)—N^2-[1-(4-Fluorophenyl)ethyl]-N^4-(pyrazin-2-yl)-6-[3-(pyrrolidin-1-yl)azetidin-1-yl]pyrimidine-2,4-diamine] | 66 nM | 18 nM | 0.75 nM |
| C[C@H](Nc1nc(Nc2cnccn2)cc(N2CC(N3CCOCC3)C2)n1)c1ccc(F)cc1 [Example 223, (S)—N^2-[1-(4-Fluorophenyl)ethyl]-6-(3-morpholinoazetidin-1-yl)-N^4-(pyrazin-2-yl)pyrimidine-2,4-diamine] | 57 nM | 11 nM | 0.65 nM |
| C[C@H](Nc1nc(Nc2cnccn2)cc(N2CC(N3CCN(C)CC3)C2)n1)c1ccc(F)cc1 [Example 224, (S)—N^2-[1-(4-Fluorophenyl)ethyl]-6-[3-(4-methylpiperazin-1-yl)azetidin-1-yl]-N^4-(pyrazin-2-yl)pyrimidine-2,4-diamine] | 94 nM | 16 nM | 1.1 nM |
| C[C@H](Nc1nc(Nc2cnccn2)cc(N2CC(N3CCC(O)CC3)C2)n1)c1ccc(F)cc1 [Example 225] | 64 nM | 13 nM | 0.69 nM |
